Experiments:
[1] = system: neural progenitor cell (NPCs); assay: Neurosphere counts in 96-well plates; assay type: cell-based, mouse; conditions: cells grown for 2 days
Experimental: Generation of neural progenitor cell (NPCs) libraries:
dissociation of E14 mouse neocortex
E14 pup brains were harvested and placed in ice cold DPBS(1X)+10% Pen/Strep, then they were dissected using a dissecting microscope. From each pup, one brain hemisphere was placed in 2 ml of Neurobasal media/10% P/S/10X Hepes and another brain hemisphere was placed in another tube.
The tissue from each tube was aseptically and manually dissociate into single cells, neurobasal complete medium was added and centrifuged at 130G for 5 min. The tissue was then re-suspended in neurobasal complete media with GF and placed in a corning suspension culture dish 100 mm×20 mm (#430591). Cells were passage twice using a 1:3 ratio, after what they were centrifuged (130 g 5 min), resuspended in freezing media (10% DMSO and neurobasal complete media, no GF) and frozen in liquid nitrogen (LN2).
Corning Costar 3474, 96 well plate, Ultra low attachment
3-4 mLs of cells were taken out of the tilted plate and add to a 15 ml conical. Some of the remaining media was used to rinse down the plate. All remaining media was drawn up and put into a 15 ml conical tube, and Spun at 130 G for 5 min. All media was removed. The cells were gently resuspended in 5 mls of warm PBS, spun again. PBS was then removed and the cells were then gently resuspended in 500 μl of Accutase(Corning™ Accutase™ Cell Detachment Solution, #25058Cl). The cells were then Pipetted gently with a 1000 μl tip to break up pellet, and then they were placed in a shaking water bath for 5-10 minutes, after which time they were swirled by hand frequently.
Control and compound media was made with #2 media and contain 29 uM Choline, low (5 uM) and medium (70 uM) choline media was made with #3 media.
Clumps were no bigger than ˜3-5 cells. 5-10 mls of warm media (GF) was added to dilute enzyme. 2 mls of media was added. […]
in AB staining solution for five min. Imaging was carried out using a GE Cytell imager or LSM 710, Zeiss confocal microscope and the diameters of neurospheres with ImageJ software (National Institutes of Health) was analysed.

[2] = system: neural progenitor cell (NPCs); assay: Monolayer culture NPC proliferation assay; assay type: cell-based, mouse; conditions: 3 days culture
Experimental: 24 well glass bottom plates (Mat Tek P24G-1.0-13-F Case, glass bottom 24 well plates) were coated with poly-L-ornithin (Sigma P4957) and Fibronection (Sigma F1141) before use in the assay below.
Cells were plated (10,000 cells per well) in Complete media with GF for 24 hours (500 ul per well). Once cells had been attached they were switched to choline deficient media, other compound media, or appropriate media.
After 24 h, it was ensured that cells had attached to the plate then the medium was carefully removed. 500 μL of compound media plus GF.was added. The cells were cultured for 3 days in appropriate media.
Control and compound media was made with #2 media and contains 29 uM Choline, Low (5 uM) and medium (70 uM) choline media was made with #3 media.
EDU incorporation was measured using Click-iT® EdU Alexa Fluor® 555 Imaging Kit (Life technologies, #c10338).
At the end of day 3 EdU was added to each well at 10 μM for 30 minutes prior to fixation. For fixation and subsequent immunohistochemical analysis, the medium was removed, the cells were rinsed once with 1X PBS for 5 min, and fixed with 4% PFA in 1X PBS for 15 min at 4° C., then the cells were washed twice with 1X PBS for 5 min, left in 1X PBS, wrapped in foil and leave overnight at 4° C., or staining was proceeded with.
PBS was removed and enough AB staining solution (1% Goat
serum, 1xPBS, and 0.1% triton X) added to cover the bottom, the blockwas kept at room temp for 1 hour. The cells were stained for EDU. The cells were Incubated for 30 min at room temp, in the dark. The cells were washed with 1X PBS and stained with Dapi 1:5000 ul for 15 min. The cells were washed once with 1X PBS, then left in PBS at 4° C., or Imaged immediately using a GE Cytell imager (cell viability
application), or LSM 710, Zeiss confocal microscope (with ImageJ software (National Institutes of Health) analysis).

[3] = system: brain myelination (myelin water fraction); assay: Cross-sectional correlation of infant formula nutrient content with brain myelination (mcDESPOT MRI myelin water fraction); assay type: in vivo, human; conditions: formula-fed children up to 5 years of age; brain regions named per nutrient
Experimental: MRI (Magnetic Resonance Imaging): MRI brain scans of infants and children between 0 and 5 years were acquired using a white matter imaging technique. This technique provides a quantitative measure, the Myelin Water Fraction (MWF), which is a surrogate marker of myelin content in the brain. When mapped as a function of time across early childhood, myelination trajectories can be generated.
Infant formula composition: six infant formulas fed to infants participating in a study were analyzed for their composition/level of myelin-relevant nutrients.
Infants included in this study were drawn from a larger longitudinal study of normal brain and behavioral development: the Brown University Assessment of Myelination and Behavior Across Maturation (BAMBAM). To focus on neurotypical development, children with known potential risk factors for learning, neurologic, or psychiatric disorders were specifically excluded during recruitment and enrollment. Thus, children with in utero alcohol or illicit substance exposure, premature (<37 weeks gestation) or multiple birth, fetal ultrasound abnormalities, complicated pregnancy (e.g., preeclampsia), APGAR scores <8, NICU admission, neurological disorder (e.g., head injury, epilepsy), psychiatric or developmental disorders in the infant, parents or siblings (including maternal depression requiring medication) were excluded. Ongoing screenings, such as the MCAT for autism, or CBCL for behavioral problems, were further used to remove enrolled children with clinically concerning behaviors or overt medical conditions (such as autism spectrum disorders).
A combination of retrospective and prospective data were acquired from parents via detailed medical histories and parental interview on the type of infant formula used, percentage of breastfeeding to formula feeding, and length of exclusive breastfeeding. This information was updated at each study visit, which occurred approximately every 6 months for children under 2 years, and yearly for older children. Using this information, children were categorized into one of 2 groups: #1. Exclusively formula-fed; and #2. Exclusively breastfed for at least 90 days (3 months). Children who were fed a combination of breastmilk and formula within 3 months were excluded from our analysis. Infants within the exclusively formula-fed group were further sub-divided based on parental reports of the main infant formula used throughout the first 3 months. Main formula was defined as that given 90% of the time or more (in the case were parents used an alternate brand during vacation, for example).
Using these criteria, 94 exclusively formula-fed infants and young children were selected into group #1. These included 13 children who received formula #2; 28 who received formula #5; 8 who received formula #3; 39 who received formula #4; 5 who received formula #1 and 1 who received formula #6. A sample of 52 exclusively breast-fed infants were also selected and matched to the over formula-fed group with regards to mean age, gestation duration, birth weight, male:female ratio, ethnicity ratio, maternal education, family size, and number of languages spoken in the home (in addition to English).
Each infant was scanned using the mcDESPOT (multicomponent Driven Equilibrium Single Pulse Observation of T1 and T2) white matter imaging technique Deoni et al. (Magn. Reson. Med. 2008, 60:1372-1387), which provides a quantitative measure of the myelin water fraction (MWF)—a measure of myelin content—at each point throughout the brain. All infants were scanned during natural (i.e. non-sedated) sleep using acoustically-muffled mcDESPOT imaging protocols. Total imaging times ranged from 19 minutes for the youngest toddlers to 24 minutes for the older 4 year-old children.

Substance: Sphingomyelin
- number of neurospheres, Average (Mean) ([1]; Sphingomyelin High (Dose 3, 1 μm)): 219
- number of neurospheres, Average (Mean) ([1]; Sphingomyelin Low (Dose 1, 10 nM)): 94
- number of neurospheres, Average (Mean) ([1]; Sphingomyelin Med (Dose 2, 100 nM)): 121
- neuronal proliferation, DAPI ([2]; Sphingomyelin high (Dose 3, 1 μm)): 305
- neuronal proliferation, DAPI ([2]; Sphingomyelin low (Dose 1, 10 nM)): 280
- neuronal proliferation, DAPI ([2]; Sphingomyelin med (Dose 2, 100 nM)): 314
- association of nutrient content of infant formula with myelination (myelin water fraction) over time in the brain [3]: an association with myelination (myelin water fraction) was observed
